From the NIST ThermoML archive (doi:10.1016/j.jct.2013.04.013)

Tests used:
[1] = molar heat capacity at constant pressure; conditions: 101.33 kPa, Liquid, Small sample (50 mg) DSC
[2] = 101.33 kPa, Liquid; for thermal conductivity: Hot wire method; for viscosity: Cone and plate viscometry

CCCCCCCCCCCCCC[P+](CCCCCC)(CCCCCC)CCCCCC.O=S(=O)([N-]S(=O)(=O)C(F)(F)F)C(F)(F)F
Conditions	molar heat capacity at constant pressure [J/K/mol]	thermal conductivity [W/m/K]
[1], 333.15 K	1367.6	–
[1], 338.15 K	1372.2	–
[1], 343.15 K	1378.3	–
[1], 348.15 K	1386.7	–
[1], 353.15 K	1395.1	–
[1], 358.15 K	1403.5	–
[1], 363.15 K	1413.4	–
[1], 368.15 K	1426.4	–
[1], 373.15 K	1435.6	–
[1], 378.15 K	1440.9	–
[1], 383.15 K	1450.1	–
[1], 388.15 K	1457.7	–
[1], 393.15 K	1465.4	–
[1], 398.15 K	1473.8	–
[1], 403.15 K	1480.6	–
[1], 408.15 K	1488.3	–
[1], 413.15 K	1495.9	–
[1], 418.15 K	1502.8	–
[1], 423.15 K	1509.7	–
[1], 428.15 K	1517.3	–
[1], 438.15 K	1533.4	–
[1], 443.15 K	1536.4	–
[1], 448.15 K	1542.5	–
[1], 453.15 K	1550.2	–
[1], 458.15 K	1556.3	–
[1], 463.15 K	1560.9	–
[2], 285.65 K	–	0.139
[2], 293.14 K	–	0.138
[2], 297.72 K	–	0.137
[2], 302.37 K	–	0.137
[2], 313.04 K	–	0.135
[2], 323.58 K	–	0.134
[2], 333.55 K	–	0.135

CCCC[P+](C)(CCCC)CCCC.COS(=O)(=O)[O-] [tributylmethylphosphonium methyl sulfate]
[2]
Conditions	thermal conductivity [W/m/K]
283.34 K	0.157
293.28 K	0.156
298.36 K	0.155
303.45 K	0.155
313.5 K	0.153
323.6 K	0.153
333.58 K	0.153
343.61 K	0.153
353.51 K	0.153

CC(CC(C)(C)C)CP(=O)([O-])CC(C)CC(C)(C)C.CCCCCCCCCCCCCC[P+](CCCCCC)(CCCCCC)CCCCCC
Conditions	molar heat capacity at constant pressure [J/K/mol]	thermal conductivity [W/m/K]	viscosity [mPa·s]
[1], 293.15 K	1619.2	–	–
[1], 298.15 K	1634.7	–	–
[1], 303.15 K	1644.7	–	–
[1], 308.15 K	1655.6	–	–
[1], 313.15 K	1667.2	–	–
[1], 318.15 K	1678	–	–
[1], 323.15 K	1688	–	–
[1], 328.15 K	1698.1	–	–
[1], 333.15 K	1708.2	–	–
[1], 338.15 K	1717.4	–	–
[1], 343.15 K	1725.9	–	–
[1], 348.15 K	1736	–	–
[1], 353.15 K	1745.3	–	–
[1], 358.15 K	1754.5	–	–
[1], 363.15 K	1763.8	–	–
[2], 282.47 K	–	0.137	–
[2], 292.94 K	–	0.136	–
[2], 298.04 K	–	0.135	–
[2], 298.15 K	–	–	847.3
[2], 303.15 K	–	0.135	–
[2], 313.15 K	–	–	568.54
[2], 313.45 K	–	0.133	–
[2], 323.15 K	–	–	387.46
[2], 323.45 K	–	0.132	–
[2], 333.15 K	–	–	125.61
[2], 333.55 K	–	0.131	–
[2], 343.59 K	–	0.131	–
[2], 353.62 K	–	0.131	–

CCCCCCCCCCCCCC[P+](CCCCCC)(CCCCCC)CCCCCC.FC(F)(F)C(F)(F)[P-](F)(F)(F)(C(F)(F)C(F)(F)F)C(F)(F)C(F)(F)F
[2]
Conditions	thermal conductivity [W/m/K]
282.19 K	0.126
292.99 K	0.125
298.41 K	0.125
303.54 K	0.125
314.37 K	0.123
325.65 K	0.123
334.58 K	0.123
344.18 K	0.123
355.07 K	0.121
